For 99 compounds, cytotoxicity results are on record in ChEMBL document CHEMBL3507680, “University of Dundee, Gates Library screen for HepG2 cell viability”.

A short description of this data set: Human HepG2 cell viability assay in 384 well format. The format is toxicity, cell-based. More on the design: dose 125 nL, time 70.5 hour; cytotoxicity at 70.5 h: concentration not given beside the values. As to conditions: HepG2 cells, read-out: Inhibition.
For `CC(C)CNC(=O)C1(Cc2ccccc2-c2cccs2)CCNC1` (centres undefined), the cytotoxicity at 70.5 h is -0.684%.
Regarding `c1ccc(C2CCCN2Cc2nc(-c3cnccn3)no2)nc1` (centres undefined), the cytotoxicity at 70.5 h is -6.26%.
As to `CN(CCCN1CCOCC1)[C@@H]1c2ccccc2C2(CCNCC2)[C@H]1O`, the cytotoxicity at 70.5 h was -7.93%.
In the case of `CS(=O)(=O)c1nccn1Cc1ccc(OC(F)F)cc1`, the cytotoxicity at 70.5 h is -4.68%.
The figure for `c1ccc(CCN2CCc3c(ncn3C3CC3)C2)nc1` is -3.33%; for `CCCn1cc(-c2cc(-c3c[nH]cn3)c(C#N)c(N)n2)c(C)n1` it is 3.58%.
Consider `CCN1CCN(C(=O)c2ccnc(N(C)C)c2)CC1`, for which the cytotoxicity at 70.5 h was determined as 3.26%.
As for `CS(=O)(=O)CCS(=O)(=O)Cc1cc(Cl)c2c(c1)OCCCO2`, the figure is -5.05%.
As for `Cc1ccc(F)c(S(=O)(=O)Nc2cn(C)cc(Br)c2=O)c1`, the cytotoxicity at 70.5 h is -1.44%.
Consider `Cc1nc(CN2CCC3(CCCN(Cc4cnn(C)c4)C3)C2=O)cs1` (centres undefined), for which the cytotoxicity at 70.5 h came to 0.731%.
On to `Cc1ocnc1C(=O)N(C)[C@@H]1CCC[C@@H](N2CCCC2)[C@@H]1O`, for which the cytotoxicity at 70.5 h came out at 25.2%.
Turning to `c1csc(CCN2CCCC2c2noc(C3CC3)n2)c1` (centres undefined), the cytotoxicity at 70.5 h was -7.22%.
The figure for `CSCCCNC(=O)C(c1cccc(F)c1)N(C)C` (centres undefined) is -4.98%; for `CCS(=O)(=O)N1Cc2cncn2CC(C(=O)NCC2CC2)C1` (centres undefined) it is 1.86%.
As for `CCCN1CC[C@@H]2[C@@H](CO[C@H]2CNC(=O)c2nccn2C)C1`, the figure is -5.44%.
Consider `CN1CC2(CCCN(Cc3nnc(-c4cccc(F)c4)o3)C2)OC1=O` (centres undefined), for which the cytotoxicity at 70.5 h was -5.83%.
For `Cc1ccsc1-c1nccn1CCN(C)S(C)(=O)=O`, the cytotoxicity at 70.5 h was -1.88%.
As for `CC(=O)N1CCN(c2cc(N3CCOCC3)cnn2)CC1`, the cytotoxicity at 70.5 h is 6.14%.
Take `CN(CC(O)C(F)(F)F)C(=O)Nc1cccc(N2CCCC2)c1` (centres undefined): the cytotoxicity at 70.5 h is -3.73%.
Consider `CC(=O)Nc1ccc2nn(C(C)C)cc2c1`, for which the cytotoxicity at 70.5 h was -8.47%.
For `CNC(=O)C1CCCCN1C(=O)c1sc(-c2ccc(C)o2)nc1C` (centres undefined), the cytotoxicity at 70.5 h worked out at 3.27%.
For the compound `O=C(NC1CC1)[C@H]1C[C@H]2OCC[C@H]2N(CC2CCOCC2)C1`, the cytotoxicity at 70.5 h was determined as 22.7%.
As for `O=S(=O)(Cc1ccccc1F)NC(CO)c1ccco1` (centres undefined), the figure is 18.8%.
In the case of `Cc1cccc(=O)n1CCCNc1ncnc2c1CCNCC2`, the cytotoxicity at 70.5 h is -6.31%.
As to `CCc1cc(CN(C)Cc2nc(-c3sccc3C)oc2C)on1`, the cytotoxicity at 70.5 h was -9.39%.
As for `Cc1cc(CNC2(c3ccccc3)CCCCC2)no1`, the figure is -4.77%; as for `CC(C)S(=O)(=O)N1C[C@H]2OC(=O)N(CCc3cccc(Cl)c3)[C@H]2C1`, -4.98%.
Take `O=C(Nc1ccc(-c2ccccc2)cn1)C1CCCN1C(=O)C1CC1` (centres undefined): the cytotoxicity at 70.5 h was found to be 5.65%.
Turning to `Cc1cc(C)n(CCC(=O)N2CCC(c3nc(C)no3)CC2)n1`, the cytotoxicity at 70.5 h is -12.5%.
Take `CN(C)C(=O)NCc1ncn2c1CN(Cc1cccs1)CCC2`: the cytotoxicity at 70.5 h is -3.13%.
On to `Cc1nn(C)cc1C(=O)NCc1csc(C2CC2)n1`, for which the cytotoxicity at 70.5 h came out at 18.9%.
The figure for `CC1CCN(CCCNC(=O)NC(C)c2nncn2C)CC1` (centres undefined) is -3.78%.
As for `CC(=O)N1CCN([C@@H]2CCC[C@@H](NC(=O)c3cccnc3)[C@H]2O)CC1`, the figure is -11.5%; as for `C=C(C)CN1CCN(CCC(=O)Nc2ccccc2C(N)=O)CC1`, -10.8%.
For the compound `Cc1cnc(C)c(N2CCC(Cc3ccccc3Cl)(C(=O)O)CC2)n1`, the cytotoxicity at 70.5 h is -8.45%.
Take `O=C(CCN1CCOC(CNc2cccnn2)C1)NC1CCCCC1` (centres undefined): the cytotoxicity at 70.5 h is 11.1%.
For `Nc1ncc(-c2ccc(Cl)cc2)c(C2CCCNC2)n1` (centres undefined), the cytotoxicity at 70.5 h is 37.3%.
Consider `COc1ccccc1C1Cn2c(C)cnc2CN1Cc1c[nH]nc1C` (centres undefined), for which the cytotoxicity at 70.5 h was -12.2%.
As for `Fc1ccccc1CC1CCN(Cc2cscn2)CC1`, the cytotoxicity at 70.5 h is -4.53%.
The figure for `CC1c2ncc(CN3CCN(C)CC3)n2CCN1Cc1ccsc1` (centres undefined) is -0.917%.
Consider `CC(C)Nc1nc2c(c(NC3CC3)n1)CCN(C1CCOCC1)CC2`, for which the cytotoxicity at 70.5 h was -3.76%.
As for `CC(=O)NS(=O)(=O)c1ccc(F)cc1C(F)(F)F`, the figure is 33.1%.
The figure for `Cc1ccc(CNC2CCN(CCc3ccncc3)CC2)cc1C` is 1.32%.
For `COC(=O)N1CCCC(NC(=O)NCc2nc(C)cs2)C1` (centres undefined), the cytotoxicity at 70.5 h was -8.72%.
`CCNC(=O)NC(=O)CN(CC(C)O)c1ccccc1` (centres undefined): the cytotoxicity at 70.5 h was -7.42%.
Regarding `CC(C)N1CC[C@@](C)(O)[C@H](n2ccc(=O)[nH]c2=O)C1`, the cytotoxicity at 70.5 h was -7.14%.
As for `Cn1nc(CN2CCCCC2)c2c1CN(C(=O)c1cccc(Cl)c1)C2`, the figure is 40.4%; as for `O=S(=O)(c1ccccc1)N1CCC2(CCCN2Cc2ccc(Cl)cc2)C1` (centres undefined), -7.11%.
On to `OCCN1CCC(F)(F)C2(CCN(c3cccnc3)C2)C1` (centres undefined), for which the cytotoxicity at 70.5 h is -6.87%.
As for `Cc1cnc(N2CCN3C[C@H](OCc4ccccn4)C[C@H]3C2)nc1`, the cytotoxicity at 70.5 h was -2.63%.
For the compound `CCC(CNC(=O)c1ccc(F)cc1F)N1CCc2ccccc2C1` (centres undefined), the cytotoxicity at 70.5 h is -7.79%.
For `COCC(=O)N1CCCC(C(=O)NCc2cc(CC(C)C)on2)C1` (centres undefined), the cytotoxicity at 70.5 h came out at 27%.
As to `Cc1ccc(CC2COCCN(S(=O)(=O)c3ccccc3)C2)nc1` (centres undefined), the cytotoxicity at 70.5 h is -0.967%.
In the case of `Cc1ccc2oc(C(=O)N3CCc4nnc(N(C)C)cc4C3)cc2n1`, the cytotoxicity at 70.5 h is -3.29%.
As for `Cc1ccc2c(c1)SCC(=O)N2Cc1noc(C2CC2)n1`, the cytotoxicity at 70.5 h was 16.3%.
In the case of `CS(=O)(=O)N1CCO[C@H]2[C@@H](Oc3ncccc3F)CC[C@@H]21`, the cytotoxicity at 70.5 h is -5.41%.
Consider `CN(Cc1nnc(C2CC2)n1C)S(=O)(=O)c1ccc(F)c(C#N)c1`, for which the cytotoxicity at 70.5 h is -23.4%.
Turning to `Cc1nc2cc(=O)[nH]n2c(C)c1CC(=O)NCCCc1ccccc1`, the cytotoxicity at 70.5 h was -4.06%.
In the case of `COCCn1nc(C(=O)N(C)Cc2cnn(C)c2)ccc1=O`, the cytotoxicity at 70.5 h was 42.3%.
`COc1cccc(C(O)CN2CCN(C(=O)CCC(C)C)CC2)c1` (centres undefined): the cytotoxicity at 70.5 h turned out to be 9.11%.
For `O=C(COC1CCCCC1)NS(=O)(=O)c1ccc2c(c1)OCCCO2`, the cytotoxicity at 70.5 h is 13.6%.
Take `CCS(=O)(=O)Nc1ccc2oc(C)c(C(C)=O)c2c1`: the cytotoxicity at 70.5 h is 28.3%.
The figure for `CNc1ncccc1C(=O)N1CCC2(CCN(C)C2)CC1` is 2.78%; for `Cc1ccc(CN2CCC(c3cnccn3)CC2)s1` it is -3.44%.
As for `CNc1cncc(C2CCCN2S(=O)(=O)c2ccccc2F)n1` (centres undefined), the figure is -0.0855%; as for `O=C(CCn1cc(Cl)cn1)N1CCC2(CC1)OCCCC2O` (centres undefined), 12%; as for `Cc1ccc(C(=O)Nc2cn[nH]c2)cn1`, -1.81%.
The figure for `Cc1ccc(O)c(C(=O)N2CCC(CN3CCCCCC3)CC2)c1` is -6.42%.
As to `Cn1ccc(CN2CCC(OCCc3ccccc3)CC2)cc1=O`, the cytotoxicity at 70.5 h is -5.72%.
As to `CCS(=O)(=O)N1Cc2nccn2CC(CN2CCCC2)C1` (centres undefined), the cytotoxicity at 70.5 h worked out at 4.02%.
As to `CC(C)(O)CN1CCN(C(=O)c2sccc2C2CC2)CC1`, the cytotoxicity at 70.5 h is -6.03%.
The figure for `CC(=O)NCc1noc2c1CN(Cc1cccs1)CC2` is -1.08%; for `CS(=O)(=O)CCC(=O)NC1(c2cccc(Br)c2)CC1` it is -8.28%; for `Cc1noc(C)c1CN1C[C@@H]2COC[C@@H](CC(=O)N3CCCCO3)[C@@H]2C1` it is -6.43%.
For the compound `O=C(NCc1ccco1)Nc1ccc2nc(N3CCOCC3)oc2c1`, the cytotoxicity at 70.5 h was -2.89%.
Regarding `COc1ccc(C(=O)NCCCNc2ncccn2)cc1F`, the cytotoxicity at 70.5 h worked out at 3.94%.
For the compound `COCCOc1ccnc(-c2noc([C@@H]3CCCN3C(C)C)n2)c1`, the cytotoxicity at 70.5 h was -5.66%.
The figure for `CC(O)CN1CCC(CNCc2ccc(OC(F)(F)F)cc2)CC1` (centres undefined) is 5.04%.
The figure for `Fc1ccc(-c2cc(NCCC3CCOC3)n3nccc3n2)cc1` (centres undefined) is 0.148%.
As for `CC(C)c1n[nH]c(C(=O)Nc2ccnn2C(C)C)c1Br`, the figure is 45.8%; as for `COCc1ncn2c1CN(C(=O)c1cccc3cccnc13)CC2`, 19.6%; as for `Cc1nonc1CN1CC[C@@](O)(C2CCC2)[C@H](C)C1`, -3.97%.
In the case of `O=C(C1CCCC1)N1CC2(CCN(C3COC3)C2)Cc2ccccc21` (centres undefined), the cytotoxicity at 70.5 h is -10.8%.
`COc1ccc2ncn(Cc3ncc[nH]3)c(=O)c2c1`: the cytotoxicity at 70.5 h came to 2.5%.
With `CN1CCN(c2ccc(NC(=O)c3cccs3)c(C(F)(F)F)c2)CC1`, the cytotoxicity at 70.5 h is -9.41%.
As to `CN(C)C(=O)n1c(C(=O)NC(C)(C)CO)cc2c1c1ccccc1n2C`, the cytotoxicity at 70.5 h was -6.99%.
Turning to `O=c1c2cc3c(cc2nnn1Cc1ccccc1)OCCO3`, the cytotoxicity at 70.5 h is -2.96%.
On to `O=C(Cc1ccccc1F)N1CCCCC1c1ccn2ccnc2n1` (centres undefined), for which the cytotoxicity at 70.5 h is -6.86%.
With `O=C(Nc1ncn(CC(=O)N2CCCCCC2)n1)C1CCCO1` (centres undefined), the cytotoxicity at 70.5 h was 2.64%.
The figure for `Cc1noc(NC(=O)c2ccc(C)c(F)c2)n1` is 41%.
As to `Cc1c(C(=O)N2CCC2(C)C)nnn1-c1cccc2cnccc12`, the cytotoxicity at 70.5 h was -12.7%.
As for `CSCC(=O)N1CCCC1c1noc(C2CC2)n1` (centres undefined), the figure is -4.73%.
In the case of `CCc1cnc(N2C[C@H]3CN(Cc4csc(C)n4)C(=O)[C@H]3C2)nc1`, the cytotoxicity at 70.5 h was -8.61%.
Consider `COCc1cccc(C(=O)N2C[C@H]3CC[C@@H]2CN(Cc2cscn2)C3)n1`, for which the cytotoxicity at 70.5 h turned out to be 34.5%.
The figure for `Cc1nc(C)c(C(=O)N2CCCc3c(F)ccc(F)c32)o1` is -9.33%; for `OCCNC1CSCCc2ccccc21` (centres undefined) it is 33.4%; for `O=C(Nc1ccc2ncccc2c1)C1CC(=O)N(Cc2ccccn2)C1` (centres undefined) it is -4.54%.
On to `Cc1ccc(C2(CN3CCN(Cc4cncn4C)CC3)CC2)cc1`, for which the cytotoxicity at 70.5 h turned out to be 12.6%.
As for `CCOc1ncccc1CNC(=O)Nc1ccccc1`, the figure is 16.2%.
